Data published in US5565462A, “Composition for topical treatment of psoriasis and atopic dermatitis comprising a xanthine derivative” (Teva Pharmaceutical Industries, Ltd., priority 1991, dated 1996).

What was measured:
[1] = system: human psoriatic skin transplants; assay: Topical treatment of human psoriatic skin transplanted to nude mice (epidermal thickness / acanthosis); type: in vivo, human skin on outbred Balb/C nude mice
Text: Human psoriatic skin from psoriatic patients was transplanted to nude mice essentially according to the method of G. Kreuger et al., Prog. in Dermatol. […] The donors had stable plaque type psoriasis for at least one year preceding biopsy and had not received systemic anti-psoriatic therapy for the 4 weeks preceding biopsy. They had also not received topical therapy or U.V. therapy for the two weeks preceding biopsy. […] In this method the area (A) of the psoriasis in four main body parts (head (H), trunk (T), upper extremities (U) and lower extremities (L)) is assigned a value from 0-6 depending on the extent of psoriasis where O reflects no involvement and 6 reflects 90-100% involvement. The severity of the lesion is assessed based on three parameters: Erythema (E), Desquamation (scaling) (D) and Infiltration (I). The severity of each of these parameters is measured on a scale of 0-4 where 0 is no involvement and 4 is very sever. The total severity score is calculated according to the following formula: […]
Split thickness biopsies of nonpustular psoriatic human tissue, 4×5 cm and 0.4 mm thick were obtained from the edge of established plaques from various donor patients. […] The grafts were allowed to heal for one week prior to topical application of the test preparations.
Outbred Balb/C nude mice, 2 to 3 months of age were used in this study. The mice were obtained from the pathogen free animal breeding facility at the University of Tel Aviv (Israel) and were raised in the pathogen-free animal facility at the Faculty of Medicine, Technion-Israel Institute of Technology, Haifa, Israel.
On the day following the end of treatment the severity of the psoriatic lesion was assessed and then the animals were sacrificed and the entire graft was excised and divided into two equal sections. One section was used to assess changes in the rate of proliferation by autoradiography (tritiated thymidine incorporation) while the other section was sectioned for microscopic histological assessment, including acanthosis and parakeratosis.
In another series of experiments, human psoriatic skin of various severities was transplanted on each of 28 nude mice. The graft area was treated with various preparations as described above.
The treatments were applied as creams and were administered as described above.

[2] = system: human psoriatic fibroblasts; assay: Inhibition of human psoriatic fibroblast proliferation; type: cell-based; settings: Homo sapiens, Fibroblast
Experimental: PTX and PPF, alone as well as PTX in combination with other drugs were tested.
Human psoriatic fibroblasts were obtained from skin biopsies of 5 individuals with plaque psoriasis. Cells in the 3-7th passages were used for the experiments. Human psoriatic fibroblasts (4×10^3 -6×10^3 cells) were added in 24-well plates and cultured in Dulbecco's Modified Eagle's Medium (DMEM) supplemented with 10% fetal calf serum, 2 mM L-glutamine, 100 u/ml penicillin, 100 μg/ml streptomycin (DMEM+) at 5% CO2 and 95% humidity at 37° C.
After 3 days, medium was replaced with fresh DMEM+(control) or with medium containing various concentrations of compounds alone or in combination with pentoxifylline and incubation was continued for additional 3 days. Stock solutions (10^-1 -10^-2 M) of the compounds tested were made in ethanol. For these compounds special control (DMEM+ with 1% ethanol) was made. The compounds tested together with pentoxifylline were 3-heptanone, 3,3-dimethylbutyric acid, lipoic acid, 1,25-dihydroxyvitamin D3 betamethasone dipropionate and hydrocortisone-17-butyrate.
On the last day of experiments, the medium was aspirated and the cells were obtained by trypsinization. The number of cells in each well was counted by the use of an hemocytometer.
The percentage of inhibition of fibroblast proliferation was calculated according to the formula: [formula] and the results are shown in Tables 3 and 4.

[3] = system: human peripheral blood mononuclear cells (lymphocytes); assay: Inhibition of the mitogenic (PHA) stimulation of human lymphocytes (PBMC), [3H]thymidine; type: cell-based
Experimental: Buffy coats from the Beilinson Medical Center Blood Bank or 20 mL samples of heparinized venous blood from healthy or atopic donors were used as a source for human peripheral blood mononuclear (PBM) cells. PBM cells were separated by Ficoll-Hypaque density gradient centrifugation. […] The nonadhering cells were stirred gently and carefully collected.
PHA (1 μg/mL), indomethacin (5 μg/mL) and various xanthine derivatives were added at initiation of culture. Indomethacin was dissolved in ethanol. […] [methyl-^3 H]Thymidine (1 μCi/well) was added at 68 h, and the cells were harvested 4 h later using an automated cell harvester (Dynatech, Alexandria, Va.). Unless otherwise stated, all cultures were performed in triplicate.

[4] = system: psoriasis lesions; assay: Clinical trial in psoriasis, 2% pentoxifylline cream vs placebo, right-left comparison, PASI; type: in vivo, human patients; settings: for decrease in PASI: 2% cream twice daily
Experimental: A clinical trial was performed comparing a cream composition of 2% pentoxifylline (formulation A of Example 1) to placebo. The trial was randomized, double blind, placebo controlled, right-left comparison within patient design.
Two similar plaque areas of psoriasis (i.e. both legs or forearms), were selected for treatment in each patient. In each patient one area on one side of the body was treated with 2% pentoxifylline formulated as in Example 1 and the other area on the other side of the body was treated with placebo cream formulated identically but without the pentoxifylline. The cream (formulation A in Example 1) was applied by the patient twice daily.
Patients stopped all forms of topical psoriatic treatment two weeks before entry into the study.
Systemic psoriatic treatments and phototherapy were stopped one month before entry into the study.
The dermatological assessment was performed as follows. The dermatologist measured the area of the lesion in cm^2. The severity of each lesion was evaluated by grading erythema, scaling and thickness on a 0-4 scale where 0=none, 1=slight, 2=moderate, 3=severe and 4=exceptionally severe.
Based on these measurements the Psoriasis Area Severity Index (PASI) was calculated for each of the 2 lesions on each patient as follows:
PASI=Area x (Erythema+Thickness+Scaling)

[5] = system: atopic dermatitis; assay: Clinical trial in atopic dermatitis, 2% pentoxifylline cream vs vehicle, bilateral comparison; type: in vivo, human patients; settings: 2% cream twice a day, four weeks, seven patients aged 3-10 years
Experimental: A randomized double blind, vehicle controlled, bilateral comparison study was performed, to determine the effect of pentoxifylline (PTX) in the treatment of atopic dermatitis. The study medication contained 2% pentoxifylline in an oil-in-water cream vehicle, and the control treatment consisted of the same vehicle without the pentoxifylline. The exact formulations appear in Table 7.
Seven patients (aged 3-10 years) were enrolled in the trial and evaluated for pruritus, erythema, dryness/scaling and exudate. Pentoxifylline cream, or the placebo (the identical cream, but without the pentoxifylline) were dispensed in identical tubes that were marked for application to right and left sides. Patients were instructed to apply medication twice a day (morning and evening) for four weeks.

In the case of CC(=O)CCCCn1c(=O)c2c(ncn2C)n(C)c1=O [Pentoxifylline, 3,7-dimethyl-1-(5-oxohexyl)-xanthine], the “% Improvement (Decrease in Thickness)” value ([1]; 2% PTX cream, 7 days, donor patient 3 (PASI 7.6)) is reported as 40%, the “% Improvement (Decrease in Thickness)” value ([1]; 2% PTX cream, 7 days, donor patient 4 (PASI 17.6)) is reported as 22% and the “% Improvement (Decrease in Thickness)” value ([1]; 2% PTX cream, 7 days, donor patient 6 (PASI 3.8), placebo 0) is reported as 30%. The “Average Improvement (decrease in epidermal thickness)” value ([1]; 2% PTX cream, 7 days, placebo 5%) was 31%, the “Epidermal Thickness (Acanthosis) after 7 days treatment” value (“Epidermal Thickness (Acanthosis)” below) ([1]; 2% PTX cream, donor patient 3 (PASI 7.6), before treatment 46 μm) was 28 μm and the “Epidermal Thickness (Acanthosis)” value ([1]; 2% PTX cream, donor patient 4 (PASI 17.6), before treatment 54 μm) was 42 μm. The “Epidermal Thickness (Acanthosis)” value ([1]; 2% PTX cream, donor patient 6 (PASI 3.8), before treatment 55 μm) was 39 μm, the “SUCCESS RATIO (decrease of at least 15% in epidermal thickness)” value ([1]; 2% pentoxifylline cream (Example 1A), 7 days topical, placebo 0/6) was 6/10 and the “effectiveness in treating psoriasis (in words)” value ([1]; experiment of Table 1, transplanted skin) was “almost as effective as steroids in treating psoriasis and far more effective than dyphylline”. For the same compound, the “effectiveness in treating psoriasis (in words)” value ([1]; experiment of Table 2, 28 nude mice) was “almost as effective as topical steroids in treating psoriasis and far more effective than dyphylline”, the “effectiveness in the treatment of psoriasis (in words)” value ([1]; summary of the animal model experiments) was “effective in the treatment of psoriasis” and the inhibition at 1000 µM ([2]; PTX alone, 10^-3 M, Table 3) was 16.9%. For the same compound, the inhibition at 100 µM ([2]; compound alone, 10^-4 M, Table 4) was 5.9%, the inhibition at 1000 µM ([3]; Homo sapiens, Lymphocyte, 1 × 10^-3 M, lymphocytes from healthy volunteers, read-out: net inhibitory effect on the mitogenic stimulation of human lymphocytes) was 70% and the inhibition at 300 µM ([3]; Homo sapiens, Lymphocyte, 3 × 10^-4 M, lymphocytes from healthy volunteers, read-out: net inhibitory effect on the mitogenic stimulation of human lymphocytes) was 46%. For the same compound, the “inhibition of the mitogenic stimulation compared with the other xanthine derivatives (in words)” value ([3]; vs theophylline and diphylline, healthy volunteers) was “inhibited the mitogenic stimulation to a far greater effect than the other xanthine derivatives”, the “decrease in PASI” value ([4]; Patient 1, 1.5 weeks, placebo side 0%) was 58% and the “decrease in PASI” value ([4]; Patient 2, 2 weeks, placebo side 34%) was 53%. The “decrease in PASI” value ([4]; Patient 3, 2 weeks, placebo side 45%) was 73%, the “decrease in PASI” value ([4]; Patient 3, 6 weeks, placebo side 56%) was 90% and the “decrease in PASI” value ([4]; Patient 4, 6 weeks, placebo side 73%) was 91%. The “decrease in PASI” value ([4]; Patient 4, 8 weeks, placebo side 57%) was 88%, the “decrease in PASI” value ([4]; Patient 5, 2 weeks, placebo side 25%) was 73% and the “effectiveness in the treatment of psoriatic lesions (in words)” value ([4]; topical, summary of clinical trials) was “very effective therapeutic for the treatment of psoriatic lesions”. The “improvement of pruritus, erythema, dryness/scaling and exudate (in words)” value [5] was “significantly improved each of the four symptoms evaluated”.
